Experiments:
[1] = system: K562-TAX (chronic myeloid leukemia paclitaxel-resistant subline); assay: Cytotoxic MTS assay, K562-TAX; assay type: cell-based, human
How it was run: (§1)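 Compounds in DMSO are dispensed at time zero onto cells at 25,000–35,000 cells/mL. After 72 h incubation, MTS is added for 1–4 h and optical density at 490 nm is read. IC50 marks 50% cell growth inhibition.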

[2] = system: MRC-5LD (noncancerous human lung fibroblasts doxorubicin-resistant); assay: Cytotoxic MTS assay, MRC-5LD; assay type: cell-based
How it was run: (§2)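 Cells seeded at 25,000–35,000 cells/mL were exposed to compounds (four-fold dilutions from DMSO) for 72 h at 37 °C, 5% CO2. Viability was read by MTS metabolic staining, OD at 490 nm after 1–4 h, and IC50 taken as the concentration giving 50% growth inhibition.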

[3] = system: U2OS (osteosarcoma); assay: Cytotoxic MTS assay, U2OS; assay type: cell-based, human
How it was run: as §1

[4] = system: CCRF-CEM lymphoblasts; assay: BrDU incorporation analysis (DNA synthesis); assay type: cell-based, human; conditions: 24 h, 5 × IC50 (second value of cell)
Method: The effect of compounds on cell cycle distribution was determined to gain insights into the mechanism of its antiproliferative activity. […] For example, as compared with control, the percentage of cells in G2/M phases was increased by treatment with 5 × IC50 μM of compounds for 24 h (Table 4). […] As shown in (Table 4), there was a marked increase in the sub-G1 from 2.91 in untreated cells. 5-Bromo-2-deoxyuridine (BrDU) is incorporated into newly synthesized DNA, and 5-bromouridine (BrU) pulse labeling is therefore commonly used as a proliferation marker. Low BrDU and BrU incorporation into the DNA or RNA, respectively, of treated cells with all compounds at 5 × IC50 reflected inhibition of DNA and RNA synthesis, indicating irreversible apoptotic changes. The percentage of […] cells incorporating 5-bromouridine is proportional to the transcriptional activity of CCRF-CEM cells. Cells were cultivated and processed as described in the previous method. Before harvesting, BrDU 10 µM was added to the cells for pulse-labeling for 30 min. Then, cells were washed by PBS and fixed with −20 °C cold 70% ethanol and stored in a freezer overnight. Before analysis, the samples were incubated on ice for 30 min, washed once with PBS, and re-suspended in 2 M HCl for 30 min at rt to denature their DNA. Following neutralization with a 0.1 M Na2B4O7 (borax) solution, the cells were washed with PBS containing 0.5% Tween-20 and 1% BSA. Next, staining with primary anti-BrDU antibody (Exbio) was performed for 30 min at rt in the dark. Cells were then washed with PBS and stained with secondary anti-mouse-FITC antibody (Sigma) at rt in the dark. After another wash with PBS and incubation with propidium iodide (0.1 mg × mL^−1) and RNase A (0.5 mg × mL^−1) for 1 h at rt in the dark, cells were analyzed by flow cytometry using a 488 nm single beam laser (FACSCalibur, Becton Dickinson, Franklin Lakes, NJ, USA).

[5] = system: A549 (lung adenocarcinoma); assay: Cytotoxic MTS assay, A549; assay type: cell-based, human
How it was run: as §1

[6] = system: BJ (noncancerous human fibroblasts from foreskin); assay: Cytotoxic MTS assay, BJ; assay type: cell-based
How it was run: as §2

[7] = system: CEM-DNR bulk (daunorubicin-resistant subline of CCRF-CEM cells); assay: Cytotoxic MTS assay, CEM-DNR; assay type: cell-based, human
How it was run: as §1

[8] = system: CCRF-CEM (childhood T cell acute lymphoblastic leukemia); assay: Cytotoxic MTS assay, CCRF-CEM; assay type: cell-based, human
How it was run: as §1

[9] = system: HCT116p53−/− (HCT116 with deleted p53 gene); assay: Cytotoxic MTS assay, HCT116p53−/−; assay type: cell-based, human
How it was run: as §1

Structure (SMILES) | IC50 [1] [µM] | IC50 [2] [µM] | IC50 [3] [µM] | DNA Synthesis (% positive of cells) [4] [%] | IC50 [5] [µM] | IC50 [6] [µM] | IC50 [7] [µM] | IC50 [8] [µM] | IC50 [9] [µM]
COc1ccc(C(=O)OCCS(=O)(=O)c2cc[n+]([O-])c3cc(Cl)ccc23)cc1 [Compound 63, 2-[(N-Oxide 7-chloroquinolin-4-yl)sulfonyl]ethyl-4-methoxybenzoate] | 4.71 | 2.91 | 5.71 | 13.54 | 28.8 | 23.9 | 8.74 | 0.77 | 16.4
COc1ccc(OC)c(C(=O)OCCS(=O)(=O)c2cc[n+]([O-])c3cc(Cl)ccc23)c1 [Compound 65, 2-[(N-Oxide 7-chloroquinolin-4-yl)sulfonyl]ethyl-2,5-dimethoxybenzoate] | 6.65 | 2.02 | 7.67 | 19.73 | 28.2 | 22.2 | 8.97 | 0.55 | 8.26
COc1cc(OC)c(C(=O)OCCS(=O)(=O)c2cc[n+]([O-])c3cc(Cl)ccc23)cc1OC [Compound 66, 2-[(N-Oxide 7-chloroquinolin-4-yl)sulfonyl]ethyl-2,4,5-trimethoxybenzoate] | 6.25 | 2.3 | 8.25 | 9.68 | 28 | 21.2 | 8.03 | 1.11 | 7.94
COc1ccccc1C(=O)OCCS(=O)(=O)c1cc[n+]([O-])c2cc(Cl)ccc12 [Compound 68, 2-[(N-Oxide 7-chloroquinolin-4-yl)sulfonyl]ethyl-2-methoxybenzoate] | 4.63 | 4.17 | 6.9 | 7.18 | 27 | 24.6 | 12.2 | 1.23 | 8.3
COc1ccc(C(=O)OCCS(=O)(=O)c2cc[n+]([O-])c3cc(Cl)ccc23)cc1[N+](=O)[O-] [Compound 69, 2-[(N-Oxide 7-chloroquinolin-4-yl)sulfonyl]ethyl-4-methoxy-3-nitrobenzoate] | 7.32 | 2.74 | 10.3 | 4.22 | 28.3 | 27.2 | 19.1 | 1.38 | 11.2
Cc1ccc([N+](=O)[O-])c(C(=O)OCCS(=O)(=O)c2cc[n+]([O-])c3cc(Cl)ccc23)c1 [Compound 70, 2-[(N-Oxide 7-chloroquinolin-4-yl)sulfonyl]ethyl-5-methyl-2-nitrobenzoate] | 6.89 | 6.47 | 9.92 | 4.88 | 28.2 | 25.7 | 17.4 | 1.16 | 8.75
O=C(OCCS(=O)(=O)c1cc[n+]([O-])c2cc(Cl)ccc12)c1ccc(C(F)(F)F)cc1 [Compound 72, 2-[(N-Oxide 7-chloroquinolin-4-yl)sulfonyl]ethyl-4-(trifluoromethyl)benzoate] | 6.06 | 13.9 | 18.4 | 4.35 | 28.5 | 28.7 | 25.2 | 2.14 | 16.4

Source: article PMC9607427, “Novel 7-Chloro-(4-thioalkylquinoline) Derivatives: Synthesis and Antiproliferative Activity through Inducing Apoptosis and DNA/RNA Damage” (Pharmaceuticals, 2022)
